Results reported in patent US9822130B2, “Triazolo-pyrazinyl derivatives useful as soluble guanylate cyclase activators” (Merck Sharp & Dohme Corp., priority 2014, dated 2017).

Each compound was assayed against T1, sGC α1/β1 heterodimer stably expressed in CHO-K1 cell line (CHO-K1/sGC) (Homo sapiens, UniProt Q02108+Q02153) (assay: Cell-based sGC Functional Assay (CASA Assay), cGMP generation). Details: CHO-K1/sGC cells, 1 hr at 37° C., cGMP by HTRF, 4P fit; presence or absence of 1 μM DETA-NO not given; read-out: IP (nM) (inflection point).
T1 construct: expressed in transfected cells
T1 sequence (Q02108 1-690): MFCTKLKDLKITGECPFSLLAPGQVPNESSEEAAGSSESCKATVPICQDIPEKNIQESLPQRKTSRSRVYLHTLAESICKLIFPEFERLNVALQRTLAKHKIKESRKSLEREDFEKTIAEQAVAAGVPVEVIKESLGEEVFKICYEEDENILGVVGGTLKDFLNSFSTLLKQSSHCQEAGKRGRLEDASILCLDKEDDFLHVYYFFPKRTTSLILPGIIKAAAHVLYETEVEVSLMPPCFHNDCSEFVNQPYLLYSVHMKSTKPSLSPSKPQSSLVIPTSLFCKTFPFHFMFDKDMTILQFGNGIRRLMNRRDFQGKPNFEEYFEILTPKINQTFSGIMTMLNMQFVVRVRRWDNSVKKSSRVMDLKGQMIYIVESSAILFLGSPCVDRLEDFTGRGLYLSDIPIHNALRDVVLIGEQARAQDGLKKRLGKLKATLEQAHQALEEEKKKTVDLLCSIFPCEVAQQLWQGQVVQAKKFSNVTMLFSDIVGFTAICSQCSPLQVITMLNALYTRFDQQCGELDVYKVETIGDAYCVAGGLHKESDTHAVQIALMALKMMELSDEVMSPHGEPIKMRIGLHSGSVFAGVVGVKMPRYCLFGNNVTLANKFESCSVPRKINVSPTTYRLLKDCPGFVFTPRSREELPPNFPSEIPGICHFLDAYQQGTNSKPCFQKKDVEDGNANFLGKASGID
T1 sequence (Q02153 1-619): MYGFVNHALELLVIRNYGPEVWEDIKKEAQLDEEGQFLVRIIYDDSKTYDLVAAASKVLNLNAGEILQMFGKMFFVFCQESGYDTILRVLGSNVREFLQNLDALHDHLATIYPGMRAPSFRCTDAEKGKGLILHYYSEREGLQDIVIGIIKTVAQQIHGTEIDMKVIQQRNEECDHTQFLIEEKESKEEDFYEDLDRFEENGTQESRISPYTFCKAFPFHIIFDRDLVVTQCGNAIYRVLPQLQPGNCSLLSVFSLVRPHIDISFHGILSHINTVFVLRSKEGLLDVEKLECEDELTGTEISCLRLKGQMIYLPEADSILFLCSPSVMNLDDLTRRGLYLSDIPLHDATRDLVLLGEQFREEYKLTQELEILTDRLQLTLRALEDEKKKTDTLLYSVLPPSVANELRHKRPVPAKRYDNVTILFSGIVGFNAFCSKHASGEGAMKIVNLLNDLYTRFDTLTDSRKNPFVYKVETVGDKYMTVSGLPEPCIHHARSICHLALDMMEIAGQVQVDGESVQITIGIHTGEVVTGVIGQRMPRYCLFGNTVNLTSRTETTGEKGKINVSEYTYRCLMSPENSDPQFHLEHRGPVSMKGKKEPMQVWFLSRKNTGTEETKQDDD
Procedure, shortened: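 Readout is HTRF cGMP in lysates, normalised to the maximal response of reference sGC activator Compound A (100%), with a 4P fit giving IP and fold induction. Cells were CHO-K1/sGC (human α1/β1) in EBSS buffer with IBMX, incubated 1 hr at 37° C with compound. Run with and without 1 μM DETA-NO; final DMSO 2.5%.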

SMILES	EC50
Nc1nc(-c2cn3ncnc3c(CCC(F)(F)F)n2)nc2c1C(c1ccc(Cl)cn1)(C1CC1)C(=O)N2 (stereo not shown) [Example 82A, 4-amino-5-(5-chloropyridin-2-yl)-5-cyclopropyl-2-(8-(3,3,3-trifluoropropyl)-[1,2,4]triazolo[1,5-a]pyrazin-6-yl)-5H-pyrrolo[2,3-d]pyrimidin-6(7H)-one]	555 nM
Nc1nc(-c2cn3ncnc3c(CCC(F)(F)C(F)(F)F)n2)nc2c1C(c1cncc(F)c1)(C1CC1)C(=O)N2 (stereo not shown) [Example 8B, 4-amino-5-cyclopropyl-5-(5-fluoropyridin-3-yl)-2-(8-(3,3,4,4,4-pentafluorobutyl)-[1,2,4]triazolo[1,5-a]pyrazin-6-yl)-5H-pyrrolo[2,3-d]pyrimidin-6(7H)-one]	294 nM
CC1(c2nnc(C3CC3)o2)C(=O)Nc2nc(-c3cn4ncnc4c(CCCC(F)(F)F)n3)nc(N)c21 (stereo not shown) [Example 99A, 4-amino-5-(5-cyclopropyl-1,3,4-oxadiazol-2-yl)-5-methyl-2-(8-(4,4,4-trifluorobutyl)-[1,2,4]triazolo[1,5-a]pyrazin-6-yl)-5H-pyrrolo[2,3-d]pyrimidin-6(7H)-one]	47.5 nM
NC(=O)c1nc(-c2cn3ncnc3c(CCCC(F)(F)F)n2)nc2c1C(c1ccc(C(F)(F)F)cn1)(C1CC1)C(=O)N2 (stereo not shown) [Example 178A]	199 nM
Nc1nc(-c2cn3ncnc3c(CCCC(F)(F)F)n2)nc2c1C(c1nnc(C3CC3)o1)(C1CC1)C(=O)N2 (stereo not shown) [Example 104A, 4-amino-5-cyclopropyl-5-(5-cyclopropyl-1,3,4-oxadiazol-2-yl)-2-(8-(4,4,4-trifluorobutyl)-[1,2,4]triazolo[1,5-a]pyrazin-6-yl)-5H-pyrrolo[2,3-d] pyrimidin-6(7H)-one]	258 nM
Nc1nc(-c2cn3ncnc3c(CCC(F)(F)C(F)(F)F)n2)nc2c1C(c1ccc(C(F)(F)F)cn1)(C1CC1)C(=O)N2 (stereo not shown) [Example 15A, 4-amino-5-cyclopropyl-2-(8-(3,3,4,4,4-pentafluorobutyl)-[1,2,4]triazolo[1,5-a]pyrazin-6-yl)-5-(5-(trifluoromethyl)pyridin-2-yl)-5H-pyrrolo[2,3-d]pyrimidin-6(7H)-one]	316 nM
Cc1nc2c(Cc3ccc(F)cc3)nc(-c3nc(N)c4c(n3)NC(=O)[C@@]4(C)c3ccc(F)cc3)cn2n1 [Example 87B, (S)-4-amino-2-(8-(4-fluorobenzyl)-2-methyl-[1,2,4]triazolo[1,5-a]pyrazin-6-yl)-5-(4-fluorophcnyl)-5-methyl-5H-pyrrolo[2,3-d]pyrimidin-6(7H)-one]	80.2 nM
CC(F)(F)c1ccc(C2(C)C(=O)Nc3nc(-c4cn5ncnc5c(CCCC(F)(F)F)n4)nc(N)c32)cn1 (racemic) [Example 45B, 4-amino-5-(6-(1,1-difluoroethyl)pyridin-3-yl)-5-methyl-2-(8-(4,4,4-trifluorobutyl)-[1,2,4]triazolo[1,5-a]pyrazin-6-yl)-5H-pyrrolo[2,3-d]pyrimidin-6(7H)-one]	44.2 nM
CCCCc1nc(-c2nc(O)c3c(n2)NC(=O)C3(C)c2ccc(F)c(F)c2)cn2ncnc12 (stereo not shown) [Example 158B, 2-(8-butyl-[1,2,4]triazolo[1,5-a]pyrazin-6-yl)-5-(3,4-difluorophenyl)-4-hydroxy-5-methyl-5H-pyrrolo[2,3-d]pyrimidin-6(7H)-one]	102 nM
CCCc1nc(-c2nc(N)c3c(n2)NC(=O)C3(c2ccc(F)c(F)c2)C2CC2)cn2ncnc12 (stereo not shown) [Example 58A, 4-amino-5-cyclopropyl-5-(3,4-difluorophenyl)-2-(8-propyl-[1,2,4]triazolo[1,5-a]pyrazin-6-yl)-5H-pyrrolo[2,3-d]pyrimidin-6(7H)-one]	242 nM
Nc1nc(-c2cn3ncnc3c(CCC(F)(F)C(F)(F)F)n2)nc2c1C(c1ccccn1)(C1CC1)C(=O)N2 (stereo not shown) [Example 114A, 4-amino-5-cyclopropyl-2-(8-(3,3,4,4,4-pentafluorobutyl)-[1,2,4]triazolo[1,5-a]pyrazin-6-yl)-5-(pyridin-2-yl)-5,7-dihydro-6H-pyrrolo[2,3-d]pyrimidin-6-one]	144 nM
CCCc1nc(-c2nc(N)c3c(n2)NC(=O)C3(C)c2ccc(Cl)cc2)cn2ncnc12 (stereo not shown) [Example 53A, 4-amino-5-(4-chlorophenyl)-5-methyl-2-(8-propyl-[1,2,4]triazolo[1,5-a]pyrazin-6-yl)-5H-pyrrolo[2,3-d]pyrimidin-6(7H)-one]	26.9 nM
O=C1Nc2nc(-c3cn4ncnc4c(CCC(F)(F)C(F)(F)F)n3)nc(O)c2C1(c1cncc(F)c1)C1CC1 (stereo not shown) [Example 124B, 5-cyclopropyl-5-(5-fluoropyridin-3-yl)-4-hydroxy-2-(8-(3,3,4,4,4-pentafluorobutyl)-[1,2,4]triazolo[1,5-a]pyrazin-6-yl)-5H-pyrrolo[2,3-d]pyrimidin-6(7H)-one]	1050 nM
CCCCc1nc(-c2nc(O)c3c(n2)NC(=O)C3(C)c2ccc(Cl)c(F)c2)cn2ncnc12 (stereo not shown) [Example 156B, 2-(8-butyl-[1,2,4]triazolo[1,5-a]pyrazin-6-yl)-5-(4-chloro-3-fluorophenyl)-4-hydroxy-5-methyl-5H-pyrrolo[2,3-d] pyrimidin-6(7H)-one]	23.3 nM

The next lines start with the values.

EC50	SMILES
550 nM	CC1(c2ccc(C(F)(F)F)cn2)C(=O)Nc2nc(-c3cn4ncnc4c(CCC(F)(F)F)n3)nc(N)c21 (stereo not shown) [Example 78B, 4-amino-5-methyl-5-(5-(tritluoromethyl)pyridin-2-yl)-2-(8-(3,3,3-trifluoropropyl)-[1,2,4]triazolo[1,5-d]pyrazin-6-yl)-5H-pyrrolo[2,3-d]pyrimidin-6(7H)-one]
595 nM	Cc1nc(C2(C)C(=O)Nc3nc(-c4cn5ncnc5c(CCCC(F)(F)F)n4)nc(N)c32)ccc1C(F)(F)F (racemic) [Example 49B, 4-amino-5-methyl-5-(6-methyl-5-(trifluoromethyl)pyridin-2-yl)-2-(8-(4,4,4-trifluorobutyl)-[1,2,4]triazolo[1,5-a]pyrazin-6-yl)-5H-pyrrolo[2,3-d]pyrimidin-6(7H)-one]
5.5 nM	CC1(c2cccc(F)c2)C(=O)Nc2nc(-c3cn4ncnc4c(CCC(F)(F)C(F)(F)F)n3)nc(N)c21 (stereo not shown) [Example 14B, 4-amino-5-(3-fluorophenyl)-5-methyl-2 (8-(3,3,4,4,4-pentafluorobutyl)-[1,2,4]triazolo[1,5-a]pyrazin-6-yl)-5H-pyrrolo[2,3-d]pyrimidin-6(7H)-one]
514 nM	CC1(c2ccc(F)cn2)C(=O)Nc2nc(-c3cn4ncnc4c(CCCC(F)(F)F)n3)nc(O)c21 (stereo not shown) [Example 136B, 5-(5-fluoropyridin-2-yl)-4-hydroxy-5-methyl-2-(8-(4,4,4-trifluorobutyl)-[1,2,4]triazolo[1,5-a]pyrazin-6-yl)-5H-pyrrolo[2,3-d]pyrimidin-6(7H)-one]
260 nM	Cc1nc2c(CCC(F)(F)C(F)(F)F)nc(-c3nc(N)c4c(n3)NC(=O)C4(C)c3ccc(F)cn3)cn2n1 (stereo not shown) [Example 89B, 4-amino-5-(5-fluoropyridin-2-yl)-5-methyl-2-(2-methyl-8-(3,3,4,4,4-pentafluorobutyl)-[1,2,4]triazolo[1,5-a]pyrazin-6-yl)-5H-pyrrolo[2,3-d]pyrimidin-6(7H)-one]
55.6 nM	C[C@@]1(c2ccc(F)cc2)C(=O)Nc2nc(-c3cn4ncnc4c(CCC(F)(F)F)n3)nc(N)c21 [Example 74A, (S)-4-amino-5-(4-fluorophenyl)-5-methyl-2-(8-(3,3,3-trifluoropropyl)-[1,2,4]triazolo[1,5-a]pyrazin-6-yl)-5,7-dihydro-6H-pyrrolo[2,3-d]pyrimidin-6-one]
45.6 nM	CC1(c2ccc(C(F)F)cn2)C(=O)Nc2nc(-c3cn4ncnc4c(CCCC(F)(F)F)n3)nc(N)c21 (stereo not shown) [Example 43B, 4-amino-5-(5-(difluoromethyl)pyridin-2-yl)-5-methyl-2-(8-(4,4,4-trifluorobutyl)-[1,2,4]triazolo[1,5-a]pyrazin-6-yl)-5H-pyrrolo[2,3-d]pyrimidin-6(7H)-one]

Same assay, conditions: CHO-K1/sGC cells, 1 hr at 37° C., cGMP by HTRF; presence or absence of 1 μM DETA-NO not given; read-out: % Act. (percent activation relative to maximum cGMP production of Compound A = 100%)

Emax	SMILES
90%	CC1(c2cccc(F)c2)C(=O)Nc2nc(-c3cn4ncnc4c(CCC(F)(F)C(F)(F)F)n3)nc(N)c21 (stereo not shown) [Example 14B, 4-amino-5-(3-fluorophenyl)-5-methyl-2 (8-(3,3,4,4,4-pentafluorobutyl)-[1,2,4]triazolo[1,5-a]pyrazin-6-yl)-5H-pyrrolo[2,3-d]pyrimidin-6(7H)-one]
